Reference: publication PMC10907560, “Significant reduction of activity retention in the kidneys via optimized linker sequences in radiohybrid-based minigastrin analogs” (EJNMMI Research, 2024)

Target: T1, cholecystokinin-2 receptor (CCK-2R) (Rattus norvegicus, UniProt P30553)
T1 construct: host or cells: AR42J (rat pancreatic cancer cells)
T1 sequence (P30553 1-452): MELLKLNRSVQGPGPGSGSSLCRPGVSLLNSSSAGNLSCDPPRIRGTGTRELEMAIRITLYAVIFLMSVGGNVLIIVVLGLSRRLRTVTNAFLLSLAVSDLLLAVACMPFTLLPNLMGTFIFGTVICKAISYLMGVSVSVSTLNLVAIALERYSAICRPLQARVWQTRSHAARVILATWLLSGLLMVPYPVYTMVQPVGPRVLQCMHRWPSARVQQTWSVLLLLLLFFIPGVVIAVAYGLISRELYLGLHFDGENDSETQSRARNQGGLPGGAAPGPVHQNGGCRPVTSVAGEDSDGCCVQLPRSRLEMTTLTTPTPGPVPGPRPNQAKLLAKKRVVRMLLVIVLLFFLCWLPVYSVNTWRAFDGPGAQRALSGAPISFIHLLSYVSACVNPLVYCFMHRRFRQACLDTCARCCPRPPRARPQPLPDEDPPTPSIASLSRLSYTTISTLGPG
Experiment: CCK-2R affinity (apparent IC50), competitive binding on AR42J cells
Settings: natLu-labeled peptide, 3 h, 37 °C, [177Lu]Lu-DOTA-PP-F11N (0.3 pmol) as radiolabeled reference
Procedure: On the next day, medium was removed, cells were washed with PBS (300 µL) and fresh nutrient medium supplemented with 5% BSA (200 µL) was added. The peptide of interest (25 µL in nutrient medium) in increasing concentrations (10^−10 to 10^−4 M) in triplicate as well as [^177Lu]Lu-DOTA-PP-F11N (25 μL, 0.3 pmol) were added to the cells and the assay was incubated for 3 h at 37 °C. Subsequently, the supernatant was collected, cells were washed with PBS (300 µL) and both fractions were unified. Cell lysis was conducted by addition of NaOH (300 µL, 1 N) and incubation for at least 20 min at room temperature. The supernatant was collected, the respective wells were washed with NaOH (300 µL, 1 N) and both fractions were unified. Radioactivity of all fractions collected was quantified using a γ-counter (PerkinElmer Inc., Waltham, United States). Apparent half-maximal inhibitory concentration (IC50) was calculated via the GraphPad PRISM software (GraphPad Software Inc., La Jolla, United States).
CCK-2R positive rat pancreatic cancer cells AR42J (CLS GmbH, Eppelheim, Germany) were cultivated in monolayers in CELLSTAR® cell culture flask (Greiner Bio-One GmbH, Frickenhausen, Germany) at 37°C in a humidified atmosphere (5% CO2). Therefor, a HERAcell 150i-Incubator (Thermo Fisher Scientific Inc., Waltham, United States) was used. RPMI 1640 medium, supplemented with 5 mM L-Gln 5 mL non-essential amino acids (100×) and 10% FCS, was used for cell nutrition. Detachment of the cells for passaging was conducted with a Dulbecco’s PBS solution supplemented with 0.1% EDTA (v/v). Cell numbers were determined with a Neubauer hemocytometer (Paul Marienfeld, Lauda-Königshofen, Germany). All operations requiring sterile conditions, were accomplished using a MSC-Advantage safety workbench (Thermo Fisher Scientific Inc., Waltham, United States).
Table S1. Affinity, lipophilicity and human serum albumin binding data of the compounds evaluated. Affinity data were determined on AR42J cells (2.0 × 10^5 cells/well) and [^177Lu]Lu-DOTA-PP-F11N (0.3 pmol/well) as radiolabeled reference (3 h, 37 °C, RPMI 1640, 5 mM L-Gln, 5 mL non-essential amino acids (100×), 10% FCS + 5% BSA (v/v)).

Q: Which IC50 (n = 3, listed as [^177/natLu]Lu-DOTA-rhCCK-91) does the source give for `CCCC[C@@H](C(=O)N[C@@H](CC(=O)O)C(=O)N[C@@H](Cc1cccc2ccccc12)C(N)=O)N(C)C(=O)[C@H](Cc1c[nH]c2ccccc12)NC(=O)CCOCCOCCOCCOCCNC(=O)CC[C@@H](NC(=O)CCOCCOCCOCCOCCOCCNC(=O)CC[C@@H](NC(=O)[C@@H](CNC(=O)C[N+](C)(C)Cc1ccc([Si](F)(C(C)(C)C)C(C)(C)C)cc1)NC(=O)CN1CCN(CC(=O)O)CCN(CC(=O)O)CCN(CC(=O)O)CC1)C(=O)O)C(=O)O` [[^nat/177Lu]Lu-DOTA-rhCCK-91, DOTA-D-Dap(SiFAlin)-D-γ-Glu-(PEG)4-D-γ-Glu-(PEG)3-Trp-(N-Me)Nle-Asp-1-Nal-NH2, metal not drawn] here?
A: 8.6 ± 0.7 nM

Q: What about the IC50 (n = 3, listed as [^natLu]Lu-DOTA-rhCCK-91) of the same compound?
A: 8.56 ± 0.66 nM
